Tests used:
Assay type in all cases: physicochemical
[1] = Concentration of surfactant in filtered saturated solution in distilled water; conditions: shaken ~24 hours
Experimental: (§1) Saturated solutions of the materials of Examples 1-3 in distilled water were prepared. After shaking the solutions for ˜24 hours, the undissolved material was removed via filtration. Equilibrium surface tension data were obtained using the Wilhelmy plate method, described in L. Wilhelmy, Ann. Phys. 1863, 119, 177.

[2] = Equilibrium surface tension, Wilhelmy plate method, saturated solutions in distilled water; conditions: for Limiting EST: saturated solution in distilled water, undissolved material filtered off, Wilhelmy plate, 25° C.
Experimental: as §1
The limiting surface tensions represent the lowest surface tensions in water which can be achieved for a given surfactant regardless of the amount of surfactant used and is used to evaluate the effectiveness of a surfactant. Lower surface tensions would allow for the elimination of defects upon application of a formulation onto low energy surfaces.

[3] = Foaming properties, procedure based upon ASTM D 1173-53; conditions: for Initial Foam: foam height at completion of addition
Experimental: The foaming properties of aqueous solutions of N,N′-di-iso-pentyl DL-malamide (Ex 2) and N,N′-di-2-ethylhexyl DL-malamide (Ex 3), were examined using a procedure based upon ASTM D 1173-53. In this test, a 0.1 wt % aqueous mixture of the surfactant was prepared, any undissolved solids were filtered off, and the filtrate was added from an elevated glass pipette to a glass receiver containing the same filtrate. The foam height was measured at the completion of the addition (“Initial Foam Height”) and the time required for the foam to dissipate at the air-liquid interface (“Time to 0 Foam”) was recorded. This test provides a comparison between the foaming characteristics of various surfactants. In general, in coatings, inks, adhesives, fountain solution, agricultural, and electronic chemical formulations, foam is undesirable because it complicates handling and can lead to coating and print defects, and to inefficient application of agricultural materials or electronic chemicals.
The foaming properties of 0.1 wt % solutions of two representative nonionic surfactants, a commercial nonylphenol 15 mole ethoxylate surfactant and a commercial C8 alkyl glucoside surfactant were examined using the procedure based upon ASTM D 1173-53.

[4] = 0.1 wt % aqueous mixture, filtered

Compound	Concentration of Surfactant in Solution [1]	Limiting EST [2]	lowering the equilibrium surface tension of water (in words) [2]	Time to zero foam [3, 4]	Foam after 5 min [3, 4]	Initial Foam [3, 4]	Time to zero foam ([3]; 0.1 wt % solution)
CC(C)CNC(=O)CC(O)C(=O)NCC(C)C (racemic) [Di-isobutyl DL-malamide (Ex 1), N,N′-Di-iso-butyl DL-malamide]	<1.0 wt. %	51.3 dyne/cm	–	–	–	–	–
Nonylphenol 15 mole ethoxylate [reference compound]	–	–	–	–	4 cm	5 cm	>5 min

Continued, in another order:

Concentration of Surfactant in Solution [1]	Limiting EST [2]	lowering the equilibrium surface tension of water (in words) [2]	Time to zero foam [3, 4]	Foam after 5 min [3, 4]	Initial Foam [3, 4]	Compound	Time to zero foam ([3]; 0.1 wt % solution)
<0.1 wt. %	38.5 dyne/cm	particularly effective	˜2 sec	0 cm	1.5 cm	CCCCC(CC)CNC(=O)CC(O)C(=O)NCC(CC)CCCC (racemic) [Di-2-ethylhexyl DL-malamide (Ex 3), N,N′-Di-2-ethylhexyl DL-malamide]	–
<0.4 wt. %	42.9 dyne/cm	particularly effective	0.583 min	0 cm	1.4 cm	CC(C)CCNC(=O)CC(O)C(=O)NCCC(C)C (racemic) [Di-isopentyl DL-malamide (Ex 2), N,N′-Di-iso-pentyl DL-malamide]	–
–	–	–	–	1.0 cm	1.9 cm	C8 Alkyl glucoside [reference compound]	37 min
